Experimental data published in patent US20120202296A1, “SYSTEM, METHOD, AND APPARATUS FOR MEASURING AFFINITY CONSTANTS” (The Trustees of Columbia University in the City of New York, priority 2011, published 2012).

What was measured:
[1] = test system: ds biotinylated-DNA (90 bp) containing an EcoR1 recognition sequence; experiment: Time-resolved second harmonic (SH) signal on adding EcoR1 to DNA-coated microparticles; type: binding; conditions: PSC-DNA microparticles
Text: A particular example of how to use the above quantification method and system was experimentally validated as follows. An experimental apparatus was used to measure a time-resolved SH signal that was similar to that described in Yan E C Y, Liu Y, Eisenthal K B (1998) “New method for determination of surface potential of microscopic particles by second harmonic generation.” J Phys Chem B 102:6331-6336 which is hereby incorporated by reference in its entirety. A Princeton Instruments CCD camera was used to acquire light samples. The fundamental laser frequency was centered at 810 nm with approximately 400 mW of average power and a pulse width of approximately 75 femtoseconds (10^−15 sec.; fs). […] Polystyrene carboxylate (PSC) microparticle-DNA bioconjugate particles were prepared in an analogous way to previous synthetic reports.
FIG. 1A is a figurative illustration of the resulting particles 6. A biotin binding protein 18, NeutrAvidin (NA), is linked to the PSC surface (diameter ¼ 1.0 μm, Invitrogen). A PSC-NA solution with a concentration of 5.6×10^9 particles/mL, was suspended in water at pH ¼ 7.5. To this solution ds biotinylated-DNA 12 (90 bp, Integrated DNA Technologies) containing an EcoR1 recognition sequence 8, which is 15 bp from the end attached to the microparticle, was added to a DNA concentration of 0.69 nM and incubated at 55° C. for 1 h. […]

[2] = test system: control DNA (6-bp EcoR1 recognition sequence altered); experiment: Time-resolved SH signal control experiment with DNA whose recognition sequence is altered; type: binding; conditions: control DNA without EcoR1 recognition sequence

Substance: EcoR1: restriction enzyme that binds its DNA recognition sequence, bends and cleaves the DNA
- jump of the SH signal when EcoR1 is added ([1]; 2 mM NaCl): 9.5%
- jump of the SH signal when EcoR1 is added ([1]; NaCl concentration 8.50 mM, NaCl in place of Mg2+): 30%
- jump in the SH signal when EcoR1 is added [2]: did not show any jump in the SH signal
